Measured values published in patent publication US11371055B2, “Herbicide resistance genes” (CORTEVA AGRISCIENCE LLC, priority 2005, dated 2022).

Columns and labels:
[1] = system: AAD-12 (v1)-containing T0 soybean plants; assay: 2,4-D spray application on T0 soybean; format: in vivo, Glycine max
From the text: Plants that are transferred to the greenhouse can be assayed for the presence of an active PAT gene further with a non-destructive manner by painting a section of leaf of the T0 primary transformant, or progeny thereof, with a glufosinate solution [0.05-2% v/v Liberty Herbicide, preferably 0.25-1.0% (v/v),=500-2000 ppm glufosinate, Bayer Crop Science]. Depending on the concentration used, assessment for glufosinate injury can be made 1-7 days after treatment. Plants can also be tested for 2,4-D tolerance in a non-destructive manner by selective application of a 2,4-D solution in water (0.25-1% v/v commercial 2,4-D dimethylamine salt formulation, preferably 0.5% v/v=2280 ppm 2,4-D ae) to the terminal leaflet of the newly expanding trifoliolate one or two, preferably two, nodes below the youngest emerging trifolioate. This assay allows assessment of 2,4-D sensitive plants 6 hours to several days after application by assessment of leaf flipping or rotation >90 degrees from the plane of the adjacent leaflets. Plants tolerant to 2,4-D will not respond to 2,4-D. To plants will be allowed to self fertilize in the greenhouse to give rise to T1 seed. T1 plants (and to the extent enough T0 plant clones are produced) will be sprayed with a range of herbicide doses to determine the level of herbicide protection afforded by AAD-12 (v1) and PAT genes in transgenic soybean. Rates of 2,4-D used on T0 plants will typically comprise one or two selective rates in the range of 100-1120 g ae/ha using a track sprayer as previously described. T1 plants will be treated with a wider herbicide dose ranging from 50-3200 g ae/ha 2,4-D. Likewise, T0 and T1 plants can be screened for glufosinate resistance by postemergence treatment with 200-800 and 50-3200 g ae/ha glufosinate, respectively. Glyphosate resistance (in plants transformed with constructs that contain EPSPS) or another glyphosate tolerance gene can be assessed in the T1 generation by postemergence applications of glyphosate with a dose range from 280-2240 g ae/ha glyphosate. Analysis of protein expression will occur as described in below. Individual T0 plants were assessed for the presence of the coding region of the gene of interest (AAD-12 (v1) or PAT v6) and copy number. Determination of the inheritance of AAD-12 (v1) will be made using T1 and T2 progeny segregation with respect to herbicide tolerance as described in previous examples. […]

[2] = system: untransformed commercial rice cultivar Lamont; assay: 2,4-D DMA tolerance, untransformed rice control; format: in vivo, Oryza sativa; details: Lemont Untransformed Control
From the text: The following T1 AAD-12 (v1) single segregating locus lines were planted into 3-inch pots containing Metro Mix media: pDAB4101(20)003 and pDAB4101(27)002. At 2-3 leaf stage were sprayed with 140 g ae/ha imazethapyr. Nulls were eliminated and individuals were sprayed at V3-V4 stage in the track sprayer set to 187 L/ha at 1120, 2240 or 4480 g ac/ha 2,4-D DMA (2×, 4×, and 8× typical commercial use rates, respectively). Plants were graded at 7 and 14 DAT and compared to untransformed commercial rice cultivar. ‘Lamont,’ as negative control plants.

[3] = system: 2P782 (Roundup Ready Control) corn; assay: Herbicide tolerance of 2P782 Roundup Ready control corn in the F1 stack test; format: in vivo, Zea mays; details: 1120 g ae/ha 2,4-D DMA
From the text: AAD-12 (v1) (pDAB4101) and elite Roundup Ready inbred (BE1146RR) were reciprocally crossed and F1 seed was collected. The seed from two F1 lines were planted and treated with 70 g ae/ha imazethapyr at the V2 stage to eliminate nulls. To the surviving plants, reps were separated and either treated with 1120 g ae/ha 2,4-D DMA+70 g ae/ha imazethapyr (to confirm presence of AHAS gene) or 1120 g ae/ha 2,4-D DMA+1680 g ae/ha glyphosate (to confirm the presence of the Round Up Ready gene) in a track sprayer calibrated to 187 L/ha. Plants were graded 3 and 16 DAT.

[4] = event D-2-14 (pDAB4464, CsVMV), spray POST over the top 560 g ae/ha 2,4-D
[5] = event D-3-5 (pDAB4468, AtUbi10), spray POST over the top 560 g ae/ha 2,4-D
[6] = event D-3-6 (pDAB4468, AtUbi10), spray POST over the top 560 g ae/ha 2,4-D
[7] = event D-3-9 (pDAB4468, AtUbi10), spray POST over the top 1120 g ae/ha 2,4-D
[8] = event D-4-17 (pDAB4468, AtUbi10), spray POST over the top 1120 g ae/ha 2,4-D
[9] = event D-5-2 (pDAB4472, AtUbi3), spray POST over the top 560 g ae/ha 2,4-D

O=C(O)COc1ccc(Cl)cc1Cl [2,4-D, 2,4-dichlorophenoxyacetic acid]
response to herbicide spray application ([1]; 560 or 1120 g ae 2,4-D): clearly resistant
% injury 2 DAT [1, 4]: 0%
% injury 7 DAT [1, 4]: 0%
% injury 14 DAT [1, 4]: 0%
% injury 2 DAT [1, 5]: 0%
% injury 7 DAT [1, 5]: 0%
% injury 14 DAT [1, 5]: 0%
% injury 2 DAT [1, 6]: 0%
% injury 7 DAT [1, 6]: 0%
% injury 14 DAT [1, 6]: 0%
% injury 2 DAT [1, 7]: 0%
% injury 7 DAT [1, 7]: 0%
% injury 14 DAT [1, 7]: 0%
% injury 2 DAT [1, 8]: 5%
% injury 7 DAT [1, 8]: 0%
% injury 14 DAT [1, 8]: 0%
% injury 2 DAT [1, 9]: 5%
% injury 7 DAT [1, 9]: 0%
% injury 14 DAT [1, 9]: 0%

CNC.O=C(O)COc1ccc(Cl)cc1Cl [2,4-D DMA]
Average % injury 14 DAT ([2]; 1120 g ae/ha): 20%
Average % injury 14 DAT ([2]; 2240 g ae/ha): 35%
Average % injury 14 DAT ([2]; 4480 g ae/ha): 50%
Average % Injury 16DAT [3]: 19%
